These are literature values, as cited in patent publication US9814623B2, “Antimicrobial gas impregnating devices and methods” (ENOX (ISRAEL) LTD., priority 2007, dated 2017).

Series [1] deals with Staphylococcus aureus. The following applies: exogenous gNO at 200 ppm for extended periods of time.
The subject of series [2] is Escherichia coli. The following applies: exogenous gNO at 200 ppm for extended periods of time.
The subject of series [3] is Group B Streptococcus. To be noted: exogenous gNO at 200 ppm for extended periods of time.
Series [4] relates to Pseudomonas aeruginosa. To be noted: exogenous gNO at 200 ppm for extended periods of time.
Series [5] has as its system Candida albicans. To be noted: exogenous gNO at 200 ppm for extended periods of time.
Series [6] deals with cultured human dermal fibroblasts. The following applies: exogenous gNO at 200 ppm for extended periods of time.
Series [7] concerns nosocomial pneumonia caused by microbial pathogens such as S. aureus and P. aeruginosa. The following applies: exogenous gNO at 200 ppm.
Series [8] deals with infections after tympanostomy tube placement. To be noted: otic drops after tympanostomy tube placement.

As for `[N]=O` [gNO, nitric oxide], the “growth of Staphylococcus aureus” value in series [1] is “inhibited and prevented the growth”. Moreover, the “growth of Escherichia coli” value in series [2] was “inhibited and prevented the growth”. Moreover, the “growth of Group B Streptococcus” value in series [3] was “inhibited and prevented the growth”. Moreover, the “growth of Pseudomonas aeruginosa” value in series [4] was “inhibited and prevented the growth”. The “growth of Candida albicans” value in series [5] is “inhibited and prevented the growth”. For the same compound, the “cytotoxic effects on cultured human dermal fibroblasts” value in series [6] is “without any cytotoxic effects”. Besides, in series [7], the “time to clear nosocomial pneumonia pathogens” value is listed as “about 6 hours”.

Consider Gentamicin, for which the incidence of infection result in series [8] is reported as “significantly reduced”.
